Data taken from patent publication US7332608B2, “Anthranilamides and methods of their use” (SANOFI-AVENTIS Deutschland GmbH, priority 2001, dated 2008).

Each compound was assayed against T1, Human Kv1.5 channels (Homo sapiens, UniProt P22460) (assay: Kv1.5 currents in Xenopus oocytes, two-microelectrode voltage clamp). Conditions: human Kv1.5 expressed in Xenopus laevis oocytes; voltage jumps 500 ms to 0 mV and 40 mV; room temperature; Hill equation.
T1 construct: expressed in transfected cells; host or cells: Xenopus laevis oocytes injected with in vitro synthesized Kv1.5-encoding RNA
Assay type: cell-based
Description: Human Kv1.5 channels were expressed in Xenopus oocytes. For this purpose, firstly ooytes were isolated from Xenopus laevis and were defolliculated. Kv1.5-encoding RNA which had been synthesized in vitro was then injected into these oocytes. After 1-7 days of Kv1.5 protein expression, the Kv1.5 currents were measured on the oocytes by the two-microelectrode voltage clamp technique. The Kv1.5 channels were for this purpose usually activated with voltage jumps lasting 500 ms to 0 mV and 40 mV. A solution of the following composition flowed through the bath: NaCl 96 mM, KCl 2 mM, CaCl2 1.8 mM, MgCl2 1 mM, HEPES 5 mM (titrated to pH 7.4 with NaOH). These experiments were carried out at room temperature. The following were employed for data acquisition and analysis: geneclamp amplifier (Axon Instruments, Foster City, USA) and MacLab D/A converter and software (ADInstruments, Castle Hill, Australia). The compounds of the invention were tested by adding them in various concentrations to the bath solution. The effects of the compounds were calculated as percentage inhibition of the Kv1.5 control current which was obtained when no compound was added to the solution. The data were then extrapolated using the Hill equation in order to determine the inhibitory concentrations IC50 for the respective compounds.

T1 sequence (P22460 whole entry): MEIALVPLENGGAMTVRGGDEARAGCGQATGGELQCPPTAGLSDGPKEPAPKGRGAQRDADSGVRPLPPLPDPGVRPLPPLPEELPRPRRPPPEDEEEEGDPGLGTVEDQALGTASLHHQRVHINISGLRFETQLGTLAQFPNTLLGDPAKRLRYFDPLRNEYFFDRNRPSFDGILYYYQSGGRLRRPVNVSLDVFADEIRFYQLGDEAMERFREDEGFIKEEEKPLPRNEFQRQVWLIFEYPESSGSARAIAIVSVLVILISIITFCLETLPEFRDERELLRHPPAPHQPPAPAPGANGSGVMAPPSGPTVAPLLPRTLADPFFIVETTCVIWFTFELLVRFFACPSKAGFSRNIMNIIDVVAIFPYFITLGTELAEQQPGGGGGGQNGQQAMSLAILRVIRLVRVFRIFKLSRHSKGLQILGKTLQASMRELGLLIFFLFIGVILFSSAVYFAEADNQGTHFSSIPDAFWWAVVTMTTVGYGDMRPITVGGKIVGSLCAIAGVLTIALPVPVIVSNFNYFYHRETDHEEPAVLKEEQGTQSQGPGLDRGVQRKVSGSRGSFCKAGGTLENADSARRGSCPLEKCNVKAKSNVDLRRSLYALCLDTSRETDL

| SMILES | IC50 |
| --- | --- |
| C[C@H](NC(=O)c1cc(Cl)ccc1NS(=O)(=O)c1ccccc1)c1ccccc1 [Example 1, (S)-2-Phenylsulfonylamino-5-chloro-N-(1-phenylethyl)benzamide] | 5.5 µM |
| C[C@@H](NC(=O)c1cc(Cl)ccc1NS(=O)(=O)c1ccccc1)c1ccccc1 [Example 2, (R)-2-Phenylsulfonylamino-5-chloro-N-(1-phenylethyl)benzamide] | 8.2 µM |
| CC[C@H](NC(=O)c1cc(Cl)ccc1NS(=O)(=O)c1ccccc1)c1ccccc1 [Example 3, (S)-2-Phenylsulfonylamino-5-chloro-N-(1-phenylpropyl)benzamide] | 2.8 µM |
| CC[C@@H](NC(=O)c1cc(Cl)ccc1NS(=O)(=O)c1ccccc1)c1ccccc1 [Example 4, (R)-2-Phenylsulfonylamino-5-chloro-N-(1-phenylpropyl)benzamide] | 4.1 µM |
| COc1ccc([C@H](C)NC(=O)c2cc(Cl)ccc2NS(=O)(=O)c2ccccc2)cc1 [Example 5, (S)-2-Phenylsulfonylamino-5-chloro-N-[1-(4-methoxyphenyl)ethyl]-benzamide] | 4.5 µM |
| COc1ccc([C@@H](C)NC(=O)c2cc(Cl)ccc2NS(=O)(=O)c2ccccc2)cc1 [Example 6] | 8.2 µM |
| O=C(NC(c1ccccc1)c1ccccn1)c1cc(Cl)ccc1NS(=O)(=O)c1ccccc1 (stereo not drawn) [Example 7, 2-Phenylsulfonylamino-5-chloro-N-(phenylpyridin-2-ylmethyl)benzamide] | 5.1 µM |
| Cc1ccc(S(=O)(=O)Nc2ccccc2C(=O)N(Cc2ccccc2)Cc2cccnc2)cc1 [Example 8, N-Benzyl-N-pyridin-3-ylmethyl-2-(toluene-4-sulfonylamino)benzamide] | 0.9 µM |
| COc1ccc(S(=O)(=O)Nc2cc(C)ccc2C(=O)NC(C)c2ccccc2)cc1 (stereo not drawn) [Example 9] | 4.9 µM |
| CCC(NC(=O)c1cccc(C)c1NS(=O)(=O)c1ccc(Cl)cc1)c1ccccc1 (stereo not drawn) [Example 10] | 2.5 µM |
| CCN(C(=O)c1ccccc1NS(=O)(=O)c1ccc(Cl)cc1)C1CCCCC1 [Example 11] | 8 µM |
| CCN(C(=O)c1ccccc1NS(=O)(=O)c1ccc(C)cc1)C1CCCCC1 [Example 12] | 5.4 µM |
| Cc1ccc(S(=O)(=O)Nc2ccc(F)cc2C(=O)NC2CCCCC2)cc1 [Example 14] | 8.5 µM |
| CCN(C(=O)c1cc(F)ccc1NS(=O)(=O)c1ccc(C)cc1)C1CCCCC1 [Example 15] | 7.8 µM |
| CCN(C(=O)c1cc(Cl)ccc1NS(=O)(=O)c1ccc(C)cc1)C1CCCCC1 [Example 16] | 6.4 µM |
| O=C(NC1CCCCC1)c1cc(Cl)ccc1NS(=O)(=O)c1ccccc1 [Example 17] | 7.5 µM |
| CCN(C(=O)c1cc(Cl)ccc1NS(=O)(=O)c1ccccc1)C1CCCCC1 [Example 18] | 6.7 µM |
| COc1ccc(S(=O)(=O)Nc2c(C)cccc2C(=O)NC(C)c2ccccc2)cc1 (stereo not drawn) [Example 19] | 4.2 µM |
| CCCCS(=O)(=O)Nc1cc(C)ccc1C(=O)NC1CCCCC1 [Example 20] | 7.7 µM |
| Cc1ccc(NS(=O)(=O)c2ccccc2)c(C(=O)NC2CCCCC2)c1 [Example 21] | 5.2 µM |
| Cc1cccc(NS(=O)(=O)c2ccc(Cl)cc2)c1C(=O)NC1CCCCC1 [Example 22] | 4.8 µM |
| Cc1cccc(NS(=O)(=O)c2ccc(Cl)cc2)c1C(=O)NC(C)c1ccccc1 (stereo not drawn) [Example 23] | 5 µM |
| CCC(NC(=O)c1c(C)cccc1NS(=O)(=O)c1ccc(Cl)cc1)c1ccccc1 (stereo not drawn) [Example 24] | 3 µM |

| SMILES | IC50 |
| --- | --- |
| COc1ccc(S(=O)(=O)Nc2cc(C)ccc2C(=O)NC2CCCCC2)cc1 [Example 25] | 3.4 µM |
| CCC(NC(=O)c1cc(OC)ccc1NS(=O)(=O)c1ccc(C)cc1)c1ccccc1 (stereo not drawn) [Example 26] | 0.6 µM |
| COc1ccc(NS(=O)(=O)c2ccc(C)cc2OC)c(C(=O)NC2CCC(C)CC2)c1 (stereo not drawn) [Example 27] | 5.6 µM |
| Cc1ccc(S(=O)(=O)Nc2ccccc2C(=O)NC(C)c2ccccc2)cc1 (stereo not drawn) [Example 28] | 3.2 µM |
| COc1cc(C)ccc1S(=O)(=O)Nc1ccc(Cl)cc1C(=O)NCCOCc1ccccc1 [Example 29] | 5.1 µM |
| Cc1ccc(S(=O)(=O)Nc2ccccc2C(=O)N(Cc2ccccc2)Cc2nccn2C)cc1 [Example 30] | 0.7 µM |
| Cc1ccc(S(=O)(=O)Nc2ccccc2C(=O)N(Cc2ccccc2)CC2CCCCC2)cc1 [Example 31] | 2.6 µM |
| Cc1ccc(S(=O)(=O)Nc2ccccc2C(=O)N(CCCn2ccnc2)Cc2ccccc2)cc1 [Example 32] | 8.5 µM |
| Cc1ccc(S(=O)(=O)Nc2ccccc2C(=O)N(Cc2ccccc2)Cc2ccncc2)cc1 [Example 33] | 6.5 µM |
| Cc1ccc(S(=O)(=O)Nc2ccccc2C(=O)N(Cc2cccnc2)CC2CC2)cc1 [Example 34] | 3.1 µM |
| Cc1ccc(S(=O)(=O)Nc2ccccc2C(=O)N(Cc2ccccc2)Cc2nc3ccccc3[nH]2)cc1 [Example 35] | 2 µM |
| Cc1ccc(S(=O)(=O)Nc2ccccc2C(=O)N(Cc2ccccc2)Cc2ccc(C)o2)cc1 [Example 36] | 2 µM |
| Cc1ccc(S(=O)(=O)Nc2ccccc2C(=O)N(Cc2ccccc2)CC2CC2)cc1 [Example 37] | 1.9 µM |
| Cc1ccc(S(=O)(=O)Nc2ccccc2C(=O)N(Cc2ccccc2)Cc2ccco2)cc1 [Example 38] | 1.6 µM |
| Cc1ccc(S(=O)(=O)Nc2ccccc2C(=O)N(CCCn2ccnc2C)Cc2ccccc2)cc1 [Example 39] | > 10 µM |
| Cc1ccc(S(=O)(=O)Nc2cc(C)ccc2C(=O)N(Cc2ccccc2)Cc2nccn2C)cc1 [Example 40] | 0.8 µM |
| COc1ccc(NS(=O)(=O)c2ccc(C)cc2)c(C(=O)N(Cc2ccccc2)Cc2nccn2C)c1 [Example 41] | 1.9 µM |
| Cc1ccc(S(=O)(=O)Nc2ccccc2C(=O)N(CCc2ccccn2)CC2CC2)cc1 [Example 42] | 5 µM |
| COc1ccc(NS(=O)(=O)c2cccc(C(F)(F)F)c2)c(C(=O)N(Cc2ccccc2)Cc2nccn2C)c1 [Example 43] | 5.4 µM |
| O=C(c1ccccc1NS(=O)(=O)c1ccc(Cl)cc1)N(Cc1ccccc1)Cc1cccnc1 [Example 44] | 2.9 µM |
| Cc1ccc(S(=O)(=O)Nc2ccc(Cl)cc2C(=O)N(Cc2ccccc2)Cc2cccnc2)cc1 [Example 45] | 2.5 µM |
| Cc1ccc(S(=O)(=O)Nc2ccc(F)cc2C(=O)N(Cc2ccccc2)Cc2cccnc2)cc1 [Example 46] | 1.2 µM |
| COc1ccc(S(=O)(=O)Nc2cccc(C)c2C(=O)N(Cc2ccccc2)Cc2cccnc2)cc1 [Example 47] | 4.7 µM |

| SMILES | IC50 |
| --- | --- |
| Cc1ccc(S(=O)(=O)Nc2ccccc2C(=O)N(Cc2ccncc2)CC2CC2)cc1 [Example 48] | > 10 µM |
| Cc1ccc(S(=O)(=O)Nc2ccccc2C(=O)N(CCc2cccnc2)CC2CC2)cc1 [Example 49] | 6.3 µM |
| COc1ccc(S(=O)(=O)Nc2ccccc2C(=O)N(Cc2ccccc2)Cc2cccnc2)cc1 [Example 50] | 0.7 µM |
| CCC(Cc1ccccc1)NC(=O)c1cc(OC)ccc1NS(=O)(=O)c1ccc(C)cc1 (stereo not drawn) [Example 51] | 3.6 µM |
| CCC(Cc1ccccc1)NC(=O)c1ccccc1NS(=O)(=O)c1ccccc1 (stereo not drawn) [Example 52] | 3 µM |
| CCC(NC(=O)c1cc(OC)ccc1NS(=O)(=O)c1ccc(C)cc1)c1ccncc1 (stereo not drawn) [Example 53] | 2.5 µM |
| CCCCS(=O)(=O)Nc1ccc(C)cc1C(=O)NC1CCCCC1 [Example 54, 2-(Butylsulfonylamino)-N-cyclohexyl-5-methylbenzamide] | 4 µM |
| CCCCS(=O)(=O)Nc1ccc(C)cc1C(=O)NC(C)c1ccccc1 (stereo not drawn) [Example 55] | 4.6 µM |
| CCCCS(=O)(=O)N(CC)c1ccccc1C(=O)N[C@@H](CC)c1ccccc1 [Example 57] | 5 µM |
| CCCCS(=O)(=O)Nc1ccccc1C(=O)N[C@@H](CC)c1ccccc1 [Example 58] | > 10 µM |
| CC[C@H](NC(=O)c1ccccc1NS(=O)(=O)c1cccc(C)c1)c1ccccc1 [Example 59] | 1.7 µM |
| CC[C@H](NC(=O)c1ccccc1NS(=O)(=O)c1ccc(C)cc1)c1ccccc1 [Example 60] | 0.7 µM |
| CC[C@H](NC(=O)c1ccccc1NS(=O)(=O)c1ccc2ccccc2c1)c1ccccc1 [Example 61] | 5.6 µM |
| CC[C@H](NC(=O)c1ccccc1NS(=O)(=O)c1cccc2ccccc12)c1ccccc1 [Example 62] | 3.5 µM |
| CC[C@H](NC(=O)c1ccccc1NS(=O)(=O)c1cccc(OC)c1)c1ccccc1 [Example 63] | 1.7 µM |
| CC[C@H](NC(=O)c1ccccc1NS(=O)(=O)c1ccc(OC)cc1)c1ccccc1 [Example 64] | 0.6 µM |
| CC[C@H](NC(=O)c1ccccc1NS(=O)(=O)c1cccc2c(N(C)C)cccc12)c1ccccc1 [Example 65] | 4.8 µM |
| CC[C@H](NC(=O)c1ccccc1NS(=O)(=O)c1ccc(C(F)(F)F)cc1)c1ccccc1 [Example 66] | 4 µM |
| CC[C@H](NC(=O)c1ccccc1NS(=O)(=O)c1ccc(OC(F)(F)F)cc1)c1ccccc1 [Example 67] | 5.8 µM |
| CC[C@H](NC(=O)c1ccccc1NS(=O)(=O)c1ccc(Cl)cc1)c1ccccc1 [Example 68] | 2.9 µM |
| CC[C@H](NC(=O)c1ccccc1NS(=O)(=O)c1ccccc1)c1ccccc1 [Example 69] | 1.3 µM |
| COc1cccc(S(=O)(=O)Nc2ccccc2C(=O)N(Cc2ccccc2)Cc2cccnc2)c1 [Example 70] | 3.8 µM |
| CCCCS(=O)(=O)Nc1ccccc1C(=O)N(Cc1ccccc1)Cc1cccnc1 [Example 71] | 6.9 µM |
